The text below walks through data of article PMC4057637, “Efficacy of novel antibacterial compounds targeting histidine kinase YycG protein” (Applied Microbiology and Biotechnology, 2014).

In data set [1] the test system is S. epidermidis ATCC 35984. The data set is described as follows: Kinetics of killing planktonic S. epidermidis. The format is cell-based. Here is the method:
An overnight culture of S. epidermidis ATCC 35984 was inoculated into 20 ml of fresh MH broth at a 1:200 dilution (10^6 CFU/ml). […] Every 2 h, 100 μl of the culture was diluted and spread on agar plates. Viable bacteria (CFU) were counted and the rate and extent of killing were determined by plotting CFU/ml against time (D’Arezzo et al. [2012]; Lee et al. [2008]). This experiment was independently repeated three times.

The target of another data set is T1, recombinant YycG′ (Staphylococcus epidermidis, UniProt Q5HK19).
T1 construct: made in house; host or cells: E. coli BL21 (DE3)
The data set is described as follows: Inhibition of YycG′ autophosphorylation (Kinase-Glo Luminescent Kinase Assay). The format is biochemical, S. epidermidis. The procedure: Recombinant YycG (YycG′, amino acids 370–610) was prepared by expressing the HATPase_c and HisKA domains of YycG in E. coli BL21 (DE3). In brief, the sequence coding for YycG′ was amplified from the genome of S. epidermidis ATCC 35984 by PCR and cloned into the pET28a (+) vector, which inserts a GB1 tag (B1 domain of protein G, 56 residues) to make the recombinant fusion protein highly soluble and stable. The recombinant YycG′ protein was fused to the GB1 tag at its N-terminus end, expressed in E. coli BL21 (DE3) and purified by Ni^2+ affinity chromatography on a Ni-NTA column (Qiagen, Germany). The purified YycG′ was cleaved by TEV protease and further purified by Ni-NTA and Superdex 75 gel filtration columns (GE Healthcare, USA).
The Kinase-Glo™ Luminescent Kinase Assay (Promega, Madison, WI, USA) was used to measure the inhibitory activities of the derivatives against the autophosphorylation activity of the recombinant YycG′ following the manufacturer’s recommendation. The derivatives were serially diluted from 200 to 1.6 μM with reaction buffer (40 mM Tris pH 8.0, 20 mM MgCl2, and 0.1 mg/ml BSA). Recombinant YycG′ (0.02 μg/μl) and diluted derivative were added into a 96-well plate and incubated at 25 °C for 30 min, and then 4 μM ATP was added into each well and incubated for another 30 min. Finally, 50 μl Kinase-Glo™ Reagent containing luciferase (kinase) and D-luciferin was added. The luminescent signal generated by luciferase was in proportion to the amount of ATP remaining in the reaction. Luminescence was detected by a Perkin Elmer Victor X5 luminescence plate reader, and the intensity was recorded as relative light units (RLU). The wells containing ATP and Kinase-Glo™ without YycG′ and derivatives or containing YycG′ plus ATP and Kinase-Glo™ without the derivatives were used as the controls. The percentage inhibition of protein phosphorylation (Rp) by the derivatives was calculated as follows: Rp=RLUYycG^’+derivative+ATP+Kinase-Glo^TM-RLUYycG^’+ATP+Kinase-Glo^TM/RLUATP+Kinase-Glo^TM-RLUYycG^’+ATP+Kinase-Glo^TM×100
The concentration of a derivative required to inhibit half of the autophosphorylation of recombinant YycG′ (half maximal inhibitory concentration, IC50) was calculated with Origin 8.0 software (Origin Lab, Northampton, USA). Three independent assays were carried out, and each was performed in quadruplicate.

The test system of data set [2] is S. epidermidis ATCC 35984. The data set is described as follows: Derivatives combined with vancomycin or cefazolin (FIC index). The class given is cell-based. An excerpt: Combination antimicrobial therapy is widely used to take advantage of different mechanisms of action. It may potentiate the effect of individual antimicrobial agents by synergic action (Bijnsdorp et al. [2011]; Cokol et al. [2011]). The glycopeptide antibiotics, such as vancomycin, can bind the peptidoglycan side chains in the cell wall and prevent cross-linking during cell wall synthesis. Vancomycin has been considered to be one of the most reliable therapeutic agents against staphylococcal infections, but it is unable to clear biofilms even at high concentration (128 mg/l) (Climo et al. [1999]; Darouiche et al. [1994]; Tenover et al. [2001]). […] YycGF also plays an important role in the synthesis of peptidoglycan in B. subtilis and S. aureus (Bisicchia et al. [2007]; Dubrac and Msadek [2004]). In a preliminary study, we assessed the effects of the combined application of the derivatives with vancomycin and cefazolin against S. epidermidis ATCC 35984 according to the method of Odds ([2003]) (Cottagnoud et al. [2003]). […] No antagonism was observed between the derivatives and vancomycin or cefazolin (Table S1).
17 Table S1. The derivatives combined with vancomycin or cefazolin against S. epidermidis
Derivatives Antibiotics MIC (mg/L) FICIa Synergyb
Derivative Antibiotic In combination
alone alone (Derivative/Antibiotic)
19 a The FICI was calculated as FIC indexes= (MICderivative A in combination/MICderivative A
20 alone)+(MICantibiotic B in combination/MIC antibiotic B alone).
21 b The interaction between the two antibacterials is noted as follows: FIC index≤0.5,
22 Synergy (+); 0.5<FIC index≤4 (-), No interaction; FIC≥4.0, Antagonism.

A further data set in a line: Cytotoxicity, MTT assay. The class given is cell-based. Particulars: African green monkey, Vero 76 cells. The procedure: Vero 76 cells (African green monkey cells) were used to determine the cytotoxicity of the derivatives with the Cell Proliferation Kit I (MTT) (Roche, Indianapolis, USA). The Vero cells were grown in Dulbecco’s modified Eagle’s medium (DMEM), supplemented with 5 % fetal calf serum, 100 U/ml penicillin, […] streptomycin, and 2 mM L-glutamine. After culturing in 5 % CO2 at 37 °C for 48 h, the cells were harvested and dispensed into 96-well cell culture plates containing 5 × 10^4 cells per well in 100 μl. The cells were co-incubated with serial twofold dilutions of derivatives from 200 to 6.25 μM (six different concentrations) for 24 h at 37 °C in 5 % CO2. Then, 10 μl of the MTT labeling reagent (final concentration 0.5 mg/ml) was added to each well and incubated for 4 h. The solubilization solution (100 μl per well) was added to dissolve the purple formazan salts generated in the viable cells, and the absorbance of each well was measured at 595 nm. Cells treated with the solvent (0.1 % DMSO) were used as a negative control and the cells cultured only with DMEM medium served as a blank control. The inhibitory rate was calculated as follows: Inhibitoryrate%=Ocontrol−ODtest/ODcontrol×100
CC50 was defined as the concentration of the derivatives that inhibited the Vero cell growth by 50 % and was calculated with the Origin v8.0 software (Origin Lab, Northampton, USA) (Qin et al. [2006]).
A general note: Formazan colour is commonly taken as a measure of viable cells.

Bounds are passed on as bounds.

T1 sequence (Q5HK19 370-610): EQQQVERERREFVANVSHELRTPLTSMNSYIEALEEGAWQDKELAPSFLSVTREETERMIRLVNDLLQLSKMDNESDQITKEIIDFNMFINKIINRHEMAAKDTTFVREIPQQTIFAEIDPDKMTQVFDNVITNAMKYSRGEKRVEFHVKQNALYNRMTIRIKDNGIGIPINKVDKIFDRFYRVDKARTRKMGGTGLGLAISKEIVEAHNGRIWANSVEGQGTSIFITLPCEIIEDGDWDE

Take `O=C(O)COc1ccc(C=C2SC(=Nc3ccc(Cl)cc3)N(c3ccc(Cl)cc3)C2=O)cc1` [H2-74, 2-{4-{[3-(4-chlorophenyl)-2-[(4-chlorophenyl)imino]-4-oxothiazolidin-5-ylidene}methyl}phenoxy}acetic acid]: the “effect on growth in initial treatment phase” value in data set [1] (1/4MIC (0.38 μM) and 1/2MIC (0.75 μM), 2 to 6 h) was “inhibited the growth of S. epidermidis”. In addition, the viable cells in data set [1] (2 × MIC (3.1 μM), 12 h) is listed as 3.2 × 10^3 CFU/ml; in data set [1] (4 × MIC (6.3 μM), 10 h) it was “more than 3.1 × 10^2 CFU/ml”. Further, the “inhibition of enzymatic autophosphorylation of YycG′” value on recombinant YycG′ (100 μM derivative, YycG′ 0.13 μM) is 53.9%. Moreover, the IC50 on recombinant YycG′ (autophosphorylation of recombinant YycG′, Kinase-Glo) was 71.2 ± 4.9 µM. The MIC in data set [2] (Staphylococcus epidermidis, ATCC35984, line paired with vancomycin, read-out: MIC Derivative alone) stood at 0.8 µg/mL. The “MIC In combination: antibiotic” value in data set [2] (cefazolin combined with the labelled derivative) was determined as 1 µg/mL; in data set [2] (vancomycin combined with the labelled derivative) it was 0.5 µg/mL. Moreover, the results for the FICI in data set [2] (derivative + cefazolin) and in data set [2] (derivative + vancomycin) were 0.63 and 0.38, respectively. Also, the “MIC In combination: derivative” value is 0.4 µg/mL in data set [2] (derivative combined with cefazolin) and 0.2 µg/mL in data set [2] (derivative combined with vancomycin). The “MIC Derivative alone” value in data set [2] (line paired with cefazolin) amounted to 0.8 µg/mL. In “Cytotoxicity, MTT assay”, the CC50 at 24 h was greater than 200 µM.

Usually IC50 stands for the concentration needed to halve the response being measured. The term MIC denotes the smallest concentration in the dilution series that meets the test's criterion for growth inhibition. The CC50 is the concentration giving 50% cytotoxicity.
